Measurements as given in patent publication US9827316B2, “Cardiovascular disease treatment and prevention” (priority 2013, dated 2017).

Columns and labels:
[1] = Nitric oxide gas bubbled through carrier, change in weight; assay type: physicochemical; conditions: NO bubbled 40 hr, 25 ° C.
Protocol: This example illustrates one technique for preparing a composition in accordance with one embodiment of the invention. An accurate amount of a carrier (HNC 167-62) (see below) was introduced into a system. The carrier weight used in these experiments was approximately 250 g and the vessel size was 500 ml. The vessel was equipped with a mechanical stirrer, gas inlet, and gas outlet and was previously purged with argon for about an hour. The temperature of the carrier was kept at about 25-30° C. NO gas regulated at 5 psi (1 psi is about 6,900 Pa) and was then introduced at a controlled rate of about 1 bubble/s with continuous stirring. […] After 6 hours, the weight of the carrier had increased by 0.15%, by 12 hours by 0.25%, and by 24 hours by 0.56%. These increases in weight were believed to be significant considering the relative small molecular weight of NO versus the carrier. […] The carrier also can solidify upon cooling if the carrier is initially a solid at lower temperature.
Each carrier was taken in a 500 mL three necked flask equipped with a mechanical stirrer, gas inlet and a gas outlet. The system was purged with argon for one hour at room temperature (25° C.). Then nitric oxide gas was bubbled into the system. Then, nitric oxide gas was bubbled through carrier for stipulated amount of time. The changes in weight and color were noted. […]

[2] = Laser Doppler circulation in five human subjects (Example 8); assay type: in vivo; conditions: positive control formulation, 0.1%
Source text: This example illustrates delivery of nitric oxide formulations to five human subjects, using procedures and formulations similar to those discussed in Example 5. Each person served as their own control for the testing. A Moor Instruments Laser Doppler was used to determine circulation. […] The formulations used produce positive, almost immediate results when applied to the skin which, in these studies, was manifested by vasodilatation of the cutaneous vascular system.
For each subject, the following creams were applied: a negative control formulation (containing no NO), 0.010 gram of a 10,000 ppm NO formulation, 0.020 gram of a 10,000 ppm NO formulation, and a positive control formulation containing 0.1% methyl nicotinate. The formulations were prepared using procedures similar to those discussed in Example 1.

[3] = Laser Doppler capillary blood flow in humans, 10,000 ppm NO in closed chamber (Example 5); assay type: in vivo, human; conditions: positive control, 1/10% in alcohol applied to skin
Source text: The formulation used in these studies contained nitric oxide dispersed in a lipid matrix. […] Nitric oxide is a very rapid acting molecule, and these studies used a system that employed laser Doppler with a covered chamber. The formulation was placed into the chamber and then attached to the skin by an adhesive layer on the covering. This provided a stable measuring device as determined by multiple normal evaluations of the capillary blood flow without treatment of nitric oxide.
A known positive control, methyl nicotinate, was applied to the skin at a concentration of 1/10% in alcohol. […] The vascular dynamics are such that when the blood vessels dilate physical parameters follow Bernoulli's law. This states that as one increases the diameter of a tube containing a liquid to flow will increase but the pressure and the speed of the liquid will decrease. The laser Doppler device accurately measured these parameters.
The test product was labeled as 10,000 ppm NO (nitric oxide). The study participants had 100 mg of the test product applied in a closed Hilltop chamber on the forearm. […]
A Moor Instruments DRT4 Laser Doppler Blood Flow Monitor (Devon, England) was used in these studies. The laser Doppler technique measured blood flow in the microcapillaries of the skin that are close to the skin surface and the blood flow in underlying arterioles and venules that help to regulate skin temperature. […]

Q: With `OCCCO` [1,3-Propanediol, 1,3-propanediol] as the compound, how does the “% Wt. gain” value [1] read?
A: 0.09%

Q: Which vasodilatation [2] does the source give for `COC(=O)c1cccnc1` [methyl nicotinate] here?
A: vasodilatation was observed

Q: What about the “laser Doppler response of skin blood flow” value [3] of the same compound?
A: rapid response typical of the vasodilator
